Results published in patent publication US20230365592A1 (Agios Pharmaceuticals, Inc., priority 2022, published 2023).

Each molecule was assayed against T1, human PAH with the R408W mutation (Homo sapiens, UniProt P00439, R408W) (assay: Cell Based Phenylalanine Flux Assay). Details: A375 cells expressing R408W PAH; 24 hrs with compound, then 20 µM sepiapterin and 800 µM 13C9,15N-Phenylalanine for 4 hours; 13C-Tyrosine by LC-MS; average where tested multiple times; read-out: AC50.
T1 construct: expressed in transfected cells
T1 sequence (P00439 1-452 R408W): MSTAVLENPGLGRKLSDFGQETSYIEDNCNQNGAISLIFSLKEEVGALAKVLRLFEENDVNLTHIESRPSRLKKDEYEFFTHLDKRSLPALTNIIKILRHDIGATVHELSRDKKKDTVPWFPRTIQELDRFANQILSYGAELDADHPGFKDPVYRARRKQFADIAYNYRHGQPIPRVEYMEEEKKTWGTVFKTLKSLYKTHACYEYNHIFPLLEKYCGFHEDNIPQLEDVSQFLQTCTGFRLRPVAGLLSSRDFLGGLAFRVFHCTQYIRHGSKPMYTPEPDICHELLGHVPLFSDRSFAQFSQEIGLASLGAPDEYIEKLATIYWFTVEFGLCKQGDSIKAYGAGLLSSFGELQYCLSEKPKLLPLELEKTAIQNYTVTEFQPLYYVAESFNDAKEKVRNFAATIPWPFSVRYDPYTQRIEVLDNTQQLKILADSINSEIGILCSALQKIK
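Further: after compound treatment, cells received sepiapterin plus isotope-labelled Phenylalanine for 4 hours, then labelled Tyrosine in the medium was quantified, 10-point 2-fold dilution series run in duplicate.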

| AC50 [nM] | Structure (SMILES) |
| --- | --- |
| 1000 to 5000 | COCc1ccc2c(C(=O)N3CCc4[nH]cnc4C3c3cc4cccc(C(F)F)n4n3)cnn2c1 (stereo not shown) |
| 1000 to 5000 | Fc1cccc2cc(C3c4nc[nH]c4CCN3c3nnc(-c4ccccn4)o3)nn12 (stereo not shown) |
| > 5000 | O=C(c1cnco1)N1CCc2[nH]cnc2C1c1cc2cccc(C(F)(F)F)n2n1 (stereo not shown) |

| Structure (SMILES) | AC50 [nM] |
| --- | --- |
| Cc1nnc(C(=O)N2CCc3[nH]cnc3[C@@H]2c2cc3cccc(C(F)(F)F)n3n2)o1 (single isomer, unassigned) | 1000 to 5000 |

Same assay, conditions: A375 cells expressing human PAH R408W; 24 hrs compound incubation; 13C-Tyrosine by LC-MS; average where tested multiple times; read-out: AC50

| AC50 [nM] | Structure (SMILES) |
| --- | --- |
| 500 to 1000 | O=C(c1nnc(-c2cnn(C(F)F)c2)o1)N1CCc2[nH]cnc2[C@H]1c1cc2c(C3CC3)cccn2n1 [Example 1878, (S)-(4-(4-cyclopropylpyrazolo[1,5-a]pyridin-2-yl)-1,4,6,7-tetrahydro-5H-imidazo[4,5-c]pyridin-5-yl)(5-(1-(difluoromethyl)-1H-pyrazol-4-yl)-1,3,4-oxadiazol-2-yl)methanone] |
| > 5000 | CC(C)c1nnc(N2CCc3[nH]cnc3[C@@H]2c2cc3c(F)cccn3n2)o1 [Example 2322, (R)-2-(4-(4-fluoropyrazolo[1,5-a]pyridin-2-yl)-1,4,6,7-tetrahydro-5H-imidazo[4,5-c]pyridin-5-yl)-5-isopropyl-1,3,4-oxadiazole] |
| < 500 | O=C(c1cnc(-c2ccccn2)o1)N1CCc2[nH]cnc2[C@H]1c1cc2c(F)cccn2n1 [Example 2032, (S)-(4-(4-fluoropyrazolo[1,5-a]pyridin-2-yl)-1,4,6,7-tetrahydro-5H-imidazo[4,5-c]pyridin-5-yl)(2-(pyridin-2-yl)oxazol-5-yl)methanone] |
| > 5000 | CC(C)c1cccn2nc([C@H]3c4nc[nH]c4CCN3c3nnc(C(F)F)o3)cc12 [Example 2084, (R)-2-(difluoromethyl)-5-(4-(4-isopropylpyrazolo[1,5-a]pyridin-2-yl)-1,4,6,7-tetrahydro-5H-imidazo[4,5-c]pyridin-5-yl)-1,3,4-oxadiazole] |
| > 5000 | FC(F)(F)c1cnc(N2CCc3[nH]cnc3[C@@H]2c2cc3c(C4CC4)cccn3n2)nc1 [Example 2175, (R)-4-(4-cyclopropylpyrazolo[1,5-a]pyridin-2-yl)-5-(5-(trifluoromethyl)pyrimidin-2-yl)-4,5,6,7-tetrahydro-1H-imidazo[4,5-c]pyridine] |

Same assay, conditions: A375 cells expressing human R408W PAH; 24 hrs compound incubation; 13C-Tyrosine by LC-MS; average where tested multiple times; read-out: AC50

| AC50 [nM] | Structure (SMILES) |
| --- | --- |
| 500 to 1000 | O=C(c1nnc(-c2ncccn2)o1)N1CCc2[nH]cnc2[C@H]1c1cc2c(C(F)(F)F)cccn2n1 [Example 1381, (S)-(5-(pyrimidin-2-yl)-1,3,4-oxadiazol-2-yl)(4-(4-(trifluoromethyl)pyrazolo[1,5-a]pyridin-2-yl)-6,7-dihydro-1H-imidazo[4,5-c]pyridin-5(4H)-yl)methanone] |
| > 5000 | Cn1ccc(-c2nnc(C(=O)N3CCc4[nH]cnc4[C@@H]3c3cc4c(F)cccn4n3)o2)n1 [Example 731, (R)-(4-(4-fluoropyrazolo[1,5-a]pyridin-2-yl)-6,7-dihydro-1H-imidazo[4,5-c]pyridin-5(4H)-yl)(5-(1-methyl-1H-pyrazol-3-yl)-1,3,4-oxadiazol-2-yl)methanone] |
| 500 to 1000 | CN(C)Cc1ccc2c(C(=O)N3CCc4[nH]cnc4[C@H]3c3cc4c(Cl)cccn4n3)cnn2c1 [Example 1634, (S)-(4-(4-chloropyrazolo[1,5-a]pyridin-2-yl)-6,7-dihydro-1H-imidazo[4,5-c]pyridin-5(4H)-yl)(6-((dimethylamino)methyl)pyrazolo[1,5-a]pyridin-3-yl)methanone] |
| 1000 to 5000 | Cc1ncccc1-c1nnc(C(=O)N2CCc3[nH]cnc3[C@@H]2c2cc3c(C)cccn3n2)o1 [Example 1331, (R)-(4-(4-methylpyrazolo[1,5-a]pyridin-2-yl)-6,7-dihydro-1H-imidazo[4,5-c]pyridin-5(4H)-yl)(5-(2-methylpyridin-3-yl)-1,3,4-oxadiazol-2-yl)methanone] |
| > 5000 | O=C(c1cnn2cc(-c3ccccn3)ccc12)N1CCc2[nH]cnc2[C@@H]1c1cc2c(F)cccn2n1 [Example 1645, (R)-(4-(4-fluoropyrazolo[1,5-a]pyridin-2-yl)-6,7-dihydro-1H-imidazo[4,5-c]pyridin-5(4H)-yl)(6-(pyridin-2-yl)pyrazolo[1,5-a]pyridin-3-yl)methanone] |
| < 500 | O=C(CC1(O)CCC1)N1CCc2[nH]cnc2[C@H]1c1cc2ccccn2n1 [Example 634, (S)-2-(1-hydroxycyclobutyl)-1-(4-(pyrazolo[1,5-a]pyridin-2-yl)-6,7-dihydro-1H-imidazo[4,5-c]pyridin-5(4H)-yl)ethanone] |
| 1000 to 5000 | O=C(c1nnc(-c2ncccn2)o1)N1CCc2[nH]cnc2[C@@H]1c1cc2c(Cl)cccn2n1 [Example 1410, (R)-(4-(4-chloropyrazolo[1,5-a]pyridin-2-yl)-6,7-dihydro-1H-imidazo[4,5-c]pyridin-5(4H)-yl)(5-(pyrimidin-2-yl)-1,3,4-oxadiazol-2-yl)methanone] |
| > 5000 | Cn1ccc(-c2ccc3c(C(=O)N4CCc5[nH]cnc5[C@@H]4c4cc5c(F)cccn5n4)cnn3c2)n1 [Example 1647, (R)-(4-(4-fluoropyrazolo[1,5-a]pyridin-2-yl)-6,7-dihydro-1H-imidazo[4,5-c]pyridin-5(4H)-yl)(6-(1-methyl-1H-pyrazol-3-yl)pyrazolo[1,5-a]pyridin-3-yl)methanone] |
| 500 to 1000 | Cc1nn(C)cc1-c1nnc(C(=O)N2CCc3[nH]cnc3[C@H]2c2cc3cccc(F)n3n2)o1 [Example 1566, (S)-(5-(1,3-dimethyl-1H-pyrazol-4-yl)-1,3,4-oxadiazol-2-yl)(4-(7-fluoropyrazolo[1,5-a]pyridin-2-yl)-6,7-dihydro-1H-imidazo[4,5-c]pyridin-5(4H)-yl)methanone] |
| > 5000 | O=C(c1nnc(-c2cnn(C(F)F)c2)o1)N1CCc2[nH]cnc2[C@@H]1c1cc2cccc(C(F)F)n2n1 [Example 1441, (R)-(5-(1-(difluoromethyl)-1H-pyrazol-4-yl)-1,3,4-oxadiazol-2-yl)(4-(7-(difluoromethyl)pyrazolo[1,5-a]pyridin-2-yl)-6,7-dihydro-1H-imidazo[4,5-c]pyridin-5(4H)-yl)methanone] |
| > 5000 | O=C(c1nnc(-c2ncccc2F)o1)N1CCc2[nH]cnc2[C@@H]1c1cc2c(OC(F)(F)F)cccn2n1 [Example 1678, (R)-(5-(3-fluoropyridin-2-yl)-1,3,4-oxadiazol-2-yl)(4-(4-(trifluoromethoxy)pyrazolo[1,5-a]pyridin-2-yl)-6,7-dihydro-1H-imidazo[4,5-c]pyridin-5(4H)-yl)methanone] |
| > 5000 | Cn1nc(Cl)nc1C(=O)N1CCc2[nH]cnc2[C@@H]1c1cc2ccccn2n1 [Example 695, (R)-(3-chloro-1-methyl-1H-1,2,4-triazol-5-yl)(4-(pyrazolo[1,5-a]pyridin-2-yl)-6,7-dihydro-1H-imidazo[4,5-c]pyridin-5(4H)-yl)methanone] |
| > 5000 | Cc1ccc2c(C(=O)N3CCc4[nH]cnc4[C@@H]3c3cc4c(C(F)(F)F)cccn4n3)cnn2c1 [Example 1667, (R)-(6-methylpyrazolo[1,5-a]pyridin-3-yl)(4-(4-(trifluoromethyl)pyrazolo[1,5-a]pyridin-2-yl)-6,7-dihydro-1H-imidazo[4,5-c]pyridin-5(4H)-yl)methanone] |
| < 500 | O=C(c1nnc(C2CCC2)o1)N1CCc2[nH]cnc2[C@H]1c1cc2ccccn2n1 [Example 1514, (S)-(5-cyclobutyl-1,3,4-oxadiazol-2-yl)(4-(pyrazolo[1,5-a]pyridin-2-yl)-6,7-dihydro-1H-imidazo[4,5-c]pyridin-5(4H)-yl)methanone] |
| < 500 | O=C(c1cnn2ccccc12)N1CCc2[nH]cnc2[C@H]1c1cc2c(Cl)cccn2n1 [Example 1272, (S)-(4-(4-chloropyrazolo[1,5-a]pyridin-2-yl)-6,7-dihydro-1H-imidazo[4,5-c]pyridin-5(4H)-yl)(pyrazolo[1,5-a]pyridin-3-yl)methanone] |
| < 500 | O=C(c1nnc(-c2cnn(C(F)F)c2)o1)N1CCc2[nH]cnc2[C@H]1c1cc2c(F)cccn2n1 [Example 796, (S)-(5-(1-(difluoromethyl)-1H-pyrazol-4-yl)-1,3,4-oxadiazol-2-yl)(4-(4-fluoropyrazolo[1,5-a]pyridin-2-yl)-6,7-dihydro-1H-imidazo[4,5-c]pyridin-5(4H)-yl)methanone] |
| > 5000 | Cn1cc(-c2nnc(C(=O)N3CCc4[nH]cnc4[C@@H]3c3cc4c(Cl)cccn4n3)o2)cn1 [Example 689, (R)-(4-(4-chloropyrazolo[1,5-a]pyridin-2-yl)-6,7-dihydro-1H-imidazo[4,5-c]pyridin-5(4H)-yl)(5-(1-methyl-1H-pyrazol-4-yl)-1,3,4-oxadiazol-2-yl)methanone] |
| < 500 | CC(C)(C)c1nnc(C(=O)N2CCc3[nH]cnc3[C@H]2c2cc3c(F)cccn3n2)o1 [Example 1027, (S)-(5-(tert-butyl)-1,3,4-oxadiazol-2-yl)(4-(4-fluoropyrazolo[1,5-a]pyridin-2-yl)-6,7-dihydro-1H-imidazo[4,5-c]pyridin-5(4H)-yl)methanone] |
| < 500 | O=C(c1ccnn1C(F)F)N1CCc2[nH]cnc2[C@H]1c1cc2c(Cl)cccn2n1 [Example 782, (S)-(4-(4-chloropyrazolo[1,5-a]pyridin-2-yl)-6,7-dihydro-1H-imidazo[4,5-c]pyridin-5(4H)-yl)(1-(difluoromethyl)-1H-pyrazol-5-yl)methanone] |
